SMILES strings stand for the structures. Where two headings read alike, the source gives them in different places.

One series concerns T-45 cells. Type of series: cell-based, human. The conditions noted are these: for Estimated Cell Growth Virus-uninfected Day 7: no-drug control 1.2x10^6. As to the method: FIG. 1 is a schematic outline of the test procedure used to assess the cytotoxic effect of test compounds on T-cells either infected or non-infected with HIV and in parallel the HIV inhibitory activity of the test compounds. TCID is the tissue culture infectious dose. Cells were cultured in RPMI-1640 medium with 10% fetal calf serum containing 100 units/ml penicillin G and 100 µg/ml streptomycin.
The assay was run in 96 well plastic microtiter plates in which 0.2 ml of culture medium containing 10^4 T-cells are seeded into each well. RPMI-1640 supplemented with 10% fetal calf serum was used as the culture medium. In each assay, 6 wells are used. Three (1-3) are infected with 10^4 TCID/well of HIV-1 or HIV-2 and to the other three (4-6) culture medium alone is added. Medium is changed at the same intervals for each test compound. The detailed assay procedure is illustrated in Figures 1 and 2.
(§1) The efficacy of the test compounds used in this example was assessed as follows: 0.2 ml of culture medium containing 10^4 T-45 cells were transferred into each well of a 96-well flat-bottomed tissue-culture plastic plate and the cells were allowed to settle at 37°C (see Figure 1). After 4 hours the media were aspirated and replaced with media which contained the test compound. Following overnight incubation the media was aspirated and 10^4 TCID of virus (HIV-1 or HIV-2) was added to each well. Incubation was continued at 37°C in 5% CO2 for 1 hour. Thereafter, growth media containing the various compounds were added and incubation at 37°C was continued. On the fourth day the cell suspensions from each well were split and seeded into two new wells and 0.2 ml of fresh media with compounds was added. This was repeated on the seventh day. Cells were examined by microscopy during days 1 to 10 for the presence of syncytia, growth rate and the appearance of the cytopathic effect (CPE) (giant cells, pycnotic nuclei, loss of refractility). CPE (100%) was defined as no round, refractile, uniform cells remaining; only giant, ballooned pyknotic cells were present. The viability of HIV infected cultures was determined by a rough count/estimate of cells which underwent CPE in relation to round refractile uniform (normal) cells in a given culture.
Quantitative data on the effect of the various compounds on the non-infected cells (cytotoxicity) was obtained by comparison of their growth rate to control cells not exposed to drugs (Table 1). […] In addition, the MOLT-4 cell line was also used.

For series [1], the system named is HIV. Briefly: Inhibition of HIV-associated cytopathic effect (CPE) in T-45 cells. Format: cell-based. The settings on record: HIV infected T-45 cells, various concentrations (Fig. 3); result in words. Here is the method:
FIG. 3 is a graphical representation in which the inhibition of HIV associated CPE (―% CPE) reduction) and test compound-associated cytotoxicity (---% cell death) is plotted against the media concentration in mg/ml of several test compounds (drugs). The cell viability data was determined for non-HIV infected cells. The test compounds were the N-methyl-, N-ethyl-, and N-butyl derivatives of deoxynojirimycin (DNJ), castanospermine (Cast), N-(5-carboxymethyl-1-pentyl)-1,5-imino-L-fucitol (LFT) and 1,4-dideoxy-1,4-imino-L-arabinitol (LAB).
After a suitable period of incubation, the cultures are scored for the presence of so-called syncytial cells (giant cells). Typical examples of such a test for the evaluation of inhibitors of HIV have been disclosed by Fung et al., Bio/Technology 5, 940-946 (1987); Tyms et al., Lancet, October 31, 1987, pp. 1025-1026; Gruters et al., Nature 330, 74-77 (1987); and Walker et al., Proc. Natl. Acad. Sci. USA 84, 8120-8124 (1987).
as §1, with “culture. Cells in wells which were incubated with compounds which appeared to inhibit or reduce HIV replication and in which there was marked cell proliferation were either transferred to larger wells (of a 24-well plate) or divided in order to maintain an approximate constant cell density to promote continuous cell division.” for “culture.”

The test system of series [2] is HIV. The conditions noted are these: result in words; see Fleet et al., FEBS Lett., In Press, 1988; cited from earlier work.
Series [3] has as its system HIV. The settings on record: background literature, b4; cited from earlier work.

As for `O[C@H]1[C@H](O)[C@@H](O)CN2CC[C@H](O)[C@H]12` [Cast, castanospermine], the “Estimated Cell Growth Virus-uninfected Day 7” value in the series on T-45 cells (Dosage 0.02 mg/ml) was 1.2x10^6; with T-45 cells (Dosage 0.09 mg/ml), 1.0x10^6; in the series with T-45 cells (Dosage 0.18 mg/ml) it was 8.0x10^5; with T-45 cells (Dosage 0.35 mg/ml), 8.0x10^5; in the series with T-45 cells (Dosage 0.70 mg/ml) it was “Toxic”. In the series with T-45 cells (non-infected cells, over the concentration range used (Fig. 3, Table 1), result in words), the cytotoxicity entry is listed as “cytotoxic”. Also, the “effect on CPE formation” value in the series on HIV [1] is reported as “bell shaped dose-dependence”. Also, the “HIV inhibitory activity / effect on CPE” value in the series with HIV [2] is reported as “inhibition of the cytopathic effect (CPE) by the α-glucosidase I inhibitor castanospermine is confirmed”. In addition, in the series on HIV [3], the “reduction in virion infectivity” value is “only a modest reduction in virion infectivity”.

Source of the values: patent publication EP0324328B1, “Use of the N-n-butyl derivative of desoxynojirimycin in the manufacture of a medicament inhibiting HIV-Virus” (priority 1987, dated 1989).
